In data set [1] the target is T1, NACHT, LRR and PYD domains-containing protein 3 (Homo sapiens, UniProt Q96P20). In words: Inhibition of NLRP3 in LPS/nigericin-induced human THP-1 cells assessed as inhibition of IL-1beta production pretreated with LPS for 3 hrs followed by incubation with compound for 15 mins and later stimulated with nigericin for 90 mins by AlphaLISA assay. The data set is classed as cell-based. For orientation: Alpha assays give light when donor and acceptor beads are brought close together.

Data set [2] addresses NLR family CARD domain-containing protein 4 (Homo sapiens, UniProt Q9NPP4). In words: Inhibition of NLRC4 (unknown origin) in PMA-differentiated human THP-1 cells assessed as inhibition of IL-1 beta production pretreated for 15 mins followed by flagellin stimulation and measured after 18 hrs by AlphaLISA assay. The format is cell-based.
The target of the next data set is Cytochrome P450 3A4 (Homo sapiens, UniProt P08684). In words: Inhibition of CYP3A4 in human liver microsomes using testosterone and midazolam as substrates by LC-MS/MS analysis. The data set is classed as ADME, Microsome. (Liver microsomes are a subcellular fraction often used to study metabolism.)
Data set [3] is described as follows: Metabolic stability in human liver microsomes assessed as compound remaining incubated for 60 mins. The data set is classed as ADME, Microsome. The following applies: read-out: Stability.
Data set [4] is described as follows: Solubility of the compound in FaSSIF at pH 6.5 incubated for 4 to 24 hrs by LC/MS analysis. The format is physicochemical. The following applies: time 4-24 hrs.
Data set [5] deals with Mus musculus. In words: Anti-inflammatory activity against adriamycin-induced glomerulonephritis BALB/c mouse model assessed as decrease in urine albumin-to-creatinine ratio administered orally for 2 weeks and measured for 24 hrs. The format is functional, organism-based. The following applies: dose 30-300 mg/kg, route po, time 15.0 day.
The nature of data set [6]: Cmax in Sprague-Dawley rat at 1 mg/kg, po measured for 25 hrs. The data set is classed as ADME, organism-based. The arrangement: dose 1 mg/kg, time 25 hrs, route po. The following applies: in vivo.
Data set [7] is described as follows: Lipophilicity, logD of the compound. The format is physicochemical. The following applies: octanol/water.
Data set [8] can be described thus: Metabolic stability in mouse liver microsomes assessed as compound remaining incubated for 60 mins. The format is ADME, Microsome. The following applies: read-out: Stability.
Data set [9] is described as follows: Total body clearance in Sprague-Dawley rat at 0.3 mg/kg, iv measured for 25 hrs. The following applies: in vivo. The format is ADME, organism-based.
Data set [10] in a line: Mean residence time in Sprague-Dawley rat at 1 mg/kg, po. The data set is classed as ADME, organism-based. The following applies: in vivo.
In data set [11] the test system is Mus musculus. In words: Anti-inflammatory activity against LPS-stimulated C57BL/6J mouse assessed as reduction in IL-1beta level administered orally pretreated for 0.5 hrs before LPS challenge and measured after 4 hrs by ELISA. The format is functional, organism-based. The following applies: dose 1-10 mg/kg, route po, time 4.5 hrs. For orientation: In an ELISA, binding on a coated surface is turned into a signal by an enzyme label.

Data set [12] can be described thus: Plasma protein binding in human by equilibrium dialysis method. The data set is classed as ADME, cell-free. The following applies: read-out: PPB (converted).
Data set [13] can be described thus: Plasma protein binding in rat by equilibrium dialysis method. The following applies: read-out: PPB (converted). The format is ADME, cell-free.
A short description of data set [14]: Metabolic stability in rat liver microsomes assessed as compound remaining incubated for 60 mins. The data set is classed as ADME, Microsome. The following applies: read-out: Stability.
Data set [15] can be described thus: Plasma protein binding in mouse by equilibrium dialysis method. The following applies: read-out: PPB (converted). The format is ADME, cell-free.
The nature of data set [16]: Mean residence time in Sprague-Dawley rat at 0.3 mg/kg, iv. The format is ADME, organism-based. The following applies: in vivo.
The nature of data set [17]: Oral bioavailability in Sprague-Dawley rat at 1 mg/kg measured for 25 hrs. The format is ADME, organism-based. The following applies: in vivo.
For another data set, the system named is THP-1. In words: cells. The following applies: Homo sapiens.
The nature of data set [18]: Metabolic stability in dog liver microsomes assessed as compound remaining incubated for 60 mins. The format is ADME, Canis lupus familiaris, Microsome. The following applies: read-out: Stability.
The nature of data set [19]: Volume of distribution at steady state in Sprague-Dawley rat at 0.3 mg/kg, iv measured for 25 hrs. The following applies: in vivo, read-out: Vdss. The data set is classed as ADME, organism-based.
The nature of data set [20]: Apparent permeability of the compound in human Caco-2 cells at 25 umol/L incubated for 2 hrs by LC/MS/MS analysis. The data set is classed as ADME, cell-based. The following applies: dose 25 µmol/L.
For data set [21], the target named is T1, NACHT, LRR and PYD domains-containing protein 3. In words: Inhibition of NLRP3 in human whole blood assessed as inhibition of IL-1beta production pretreated with LPS for 3 hrs followed by incubation with compound for 0.5 hrs and later incubated with ATP for 1.5 hrs by AlphaLISA assay. The data set is classed as tissue-based.

≈ marks a conversion by molar mass, not a printed value.

T1 sequence (Q96P20 whole entry, the tested form may be a part): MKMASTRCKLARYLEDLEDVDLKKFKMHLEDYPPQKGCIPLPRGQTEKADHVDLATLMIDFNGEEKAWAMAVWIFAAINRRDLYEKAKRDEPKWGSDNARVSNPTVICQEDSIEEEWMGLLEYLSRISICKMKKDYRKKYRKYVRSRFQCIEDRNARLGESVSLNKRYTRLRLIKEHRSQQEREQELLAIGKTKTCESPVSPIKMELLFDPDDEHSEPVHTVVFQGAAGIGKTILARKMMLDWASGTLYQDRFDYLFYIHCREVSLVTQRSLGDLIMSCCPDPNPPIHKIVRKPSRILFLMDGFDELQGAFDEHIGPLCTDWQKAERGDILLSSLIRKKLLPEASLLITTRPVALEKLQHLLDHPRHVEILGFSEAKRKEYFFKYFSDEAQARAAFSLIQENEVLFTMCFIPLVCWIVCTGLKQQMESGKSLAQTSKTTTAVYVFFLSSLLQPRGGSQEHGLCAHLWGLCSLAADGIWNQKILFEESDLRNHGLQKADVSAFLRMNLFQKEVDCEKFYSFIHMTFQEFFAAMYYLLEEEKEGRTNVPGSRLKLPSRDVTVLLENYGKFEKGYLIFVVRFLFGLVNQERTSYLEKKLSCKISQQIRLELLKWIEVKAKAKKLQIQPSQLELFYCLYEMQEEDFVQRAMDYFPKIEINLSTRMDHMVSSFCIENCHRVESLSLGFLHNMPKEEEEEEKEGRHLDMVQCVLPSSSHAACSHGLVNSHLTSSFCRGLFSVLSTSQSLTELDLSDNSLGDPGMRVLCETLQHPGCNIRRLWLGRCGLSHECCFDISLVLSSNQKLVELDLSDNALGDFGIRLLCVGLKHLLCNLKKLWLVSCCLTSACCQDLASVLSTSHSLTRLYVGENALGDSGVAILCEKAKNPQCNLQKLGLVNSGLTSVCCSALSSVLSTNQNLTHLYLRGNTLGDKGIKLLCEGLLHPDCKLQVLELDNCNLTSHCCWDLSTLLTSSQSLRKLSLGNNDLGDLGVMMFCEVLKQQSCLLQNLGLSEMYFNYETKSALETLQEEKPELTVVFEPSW
Sequence of Cytochrome P450 3A4 (P08684 whole entry): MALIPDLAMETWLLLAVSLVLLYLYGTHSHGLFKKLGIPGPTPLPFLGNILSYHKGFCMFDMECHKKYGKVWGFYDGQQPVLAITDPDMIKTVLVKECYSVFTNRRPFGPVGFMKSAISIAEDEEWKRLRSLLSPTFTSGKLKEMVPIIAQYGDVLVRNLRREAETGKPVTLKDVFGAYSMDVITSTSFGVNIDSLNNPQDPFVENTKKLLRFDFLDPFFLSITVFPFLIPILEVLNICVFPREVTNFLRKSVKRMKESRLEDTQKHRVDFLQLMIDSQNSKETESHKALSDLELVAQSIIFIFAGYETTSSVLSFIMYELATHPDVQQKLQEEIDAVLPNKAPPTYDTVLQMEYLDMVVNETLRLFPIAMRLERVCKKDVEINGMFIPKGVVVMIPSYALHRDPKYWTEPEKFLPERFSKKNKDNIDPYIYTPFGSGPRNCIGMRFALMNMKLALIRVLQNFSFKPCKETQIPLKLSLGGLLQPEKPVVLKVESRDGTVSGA
Sequence of NLR family CARD domain-containing protein 4 (Q9NPP4 whole entry, the tested form may be a part): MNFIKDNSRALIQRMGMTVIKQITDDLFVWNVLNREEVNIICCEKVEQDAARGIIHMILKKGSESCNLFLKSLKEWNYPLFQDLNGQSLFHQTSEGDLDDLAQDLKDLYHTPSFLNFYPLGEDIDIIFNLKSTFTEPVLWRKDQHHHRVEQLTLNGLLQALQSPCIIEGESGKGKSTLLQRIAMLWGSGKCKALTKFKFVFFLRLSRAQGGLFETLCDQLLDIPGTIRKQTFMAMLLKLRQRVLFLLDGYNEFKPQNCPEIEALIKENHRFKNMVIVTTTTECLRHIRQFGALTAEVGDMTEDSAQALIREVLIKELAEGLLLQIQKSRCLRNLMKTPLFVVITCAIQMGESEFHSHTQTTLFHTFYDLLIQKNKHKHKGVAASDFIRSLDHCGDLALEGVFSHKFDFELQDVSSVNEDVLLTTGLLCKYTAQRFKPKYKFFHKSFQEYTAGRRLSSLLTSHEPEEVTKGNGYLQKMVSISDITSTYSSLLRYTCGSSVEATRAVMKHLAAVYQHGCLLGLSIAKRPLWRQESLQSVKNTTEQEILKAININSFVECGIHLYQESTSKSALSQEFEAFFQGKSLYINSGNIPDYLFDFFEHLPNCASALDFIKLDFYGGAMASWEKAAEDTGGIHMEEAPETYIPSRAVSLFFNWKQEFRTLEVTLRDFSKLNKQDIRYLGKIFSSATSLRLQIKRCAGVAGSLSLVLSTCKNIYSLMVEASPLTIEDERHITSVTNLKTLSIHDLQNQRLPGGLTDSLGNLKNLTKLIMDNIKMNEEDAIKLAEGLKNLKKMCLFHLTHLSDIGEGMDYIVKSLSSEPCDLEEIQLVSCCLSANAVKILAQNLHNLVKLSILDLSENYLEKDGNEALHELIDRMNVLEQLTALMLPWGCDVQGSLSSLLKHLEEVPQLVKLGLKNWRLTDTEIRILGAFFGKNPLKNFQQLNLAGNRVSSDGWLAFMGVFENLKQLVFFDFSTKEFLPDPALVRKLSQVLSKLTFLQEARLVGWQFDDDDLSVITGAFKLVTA
Description for THP-1: Inhibition of pyroptosis in human THP-1 cells pretreated with LPS for 3 hrs followed by incubation with compound for 15 mins and later stimulated with nigericin for 90 mins by CytoTox-Glo assay

By IC50 is commonly meant the concentration at which inhibition is half-maximal. With `CCOC(=O)c1cnc(Nc2c3c(cc4c2CCC4)CCC3)[nH]1`, the IC50 in [1] is above 30 µM.

What is called solubility is the dissolved amount per volume that the medium holds. A lower solubility goes with a poorly soluble substance. For orientation: Cmax means the peak of the concentration-time curve. One may read the logD as the decadic logarithm of the distribution of all forms, ionised or not, between an organic phase and buffer at a given pH. As a reminder, the clearance is the rate of elimination divided by the concentration. Read a high clearance as efficient removal. Usually MRT stands for the average time that molecules of a dose stay in the body. The Papp is a coefficient for how fast a substance crosses the barrier. Turning to `Cc1ccc(C(F)(F)F)cc1Nc1nc(C(=O)NS(=O)(=O)N2CCCOCC2)co1`, the IC50 is above 30 µM in data set [2], above 10 µM at Cytochrome P450 3A4 and 0.028 µM in the data set on THP-1. For the same compound, the remaining at 1 h in data set [3] stood at 71.2%; in data set [8], 45.5%; in [14], 90.3%; in data set [18], 90%. In data set [4], this compound returned a solubility of 444 µM (≈ 199 µg/mL). Besides, the Activity entry with Mus musculus [5] and in the data set on Mus musculus [11] was “Dose-Dependent Effect” each time. Moreover, the maximum concentration (Cmax) in [6] is 3.8 µM. For the same compound, the pH-dependent lipophilicity (logD) in data set [7] is 2.4. Besides, in data set [9], the clearance was 1 mL/min/kg. In addition, the mean residence time MRT in [10] was found to be 6.3 h; in [16], 4.7 h. Moreover, the fraction unbound was 0.009 in [12], 0.034 in [13] and 0.062 in data set [15]. Besides, the bioavailability in [17] stood at 121%. The Vd in data set [19] stood at 0.28 L/kg. The apparent permeability coefficient (Papp) at 2 h, 25 µM in data set [20] is 27.8 ×10⁻⁶ cm/s.

As to `CCOC(=O)c1cnc(Nc2c3c(cc4c2CCC4)CCC3)o1`, the concentration in solution in data set [4] (solubility) came to 11.1 µM (≈ 3.47 µg/mL). The compound also showed a pH-dependent lipophilicity (logD) in data set [7] of 4.6.

In [4], `CN(C)S(=O)(=O)NC(=O)c1coc(Nc2c3c(cc4c2CCC4)CCC3)n1` registered a solubility of 436 µM (≈ 170 µg/mL). The pH-dependent lipophilicity (logD) in [7] worked out at 2.8. Also, the half-maximal inhibitory concentration (IC50) in data set [21] was 7.8 µM. In [20], the Papp at 2 h, 25 µM was found to be 48.5 ×10⁻⁶ cm/s.

In the case of `CNC(=O)c1cnc(Nc2c3c(cc4c2CCC4)CCC3)o1`, the concentration in solution in data set [4] (solubility) was 43.9 µM (≈ 13.1 µg/mL). The half-maximal inhibitory concentration (IC50) in [1] was above 30 µM.

Consider `Cc1ccc(C(F)(F)F)cc1Nc1nc(C(=O)NS(=O)(=O)N2CCCCC2)co1`, for which, in data set [7], the logD came to 3.1. The fraction unbound in data set [12] is below 0.001.

Compound `NC(=O)c1cnc(Nc2c3c(cc4c2CCC4)CCC3)o1` yielded a solubility in data set [4] of 45.6 µM (≈ 12.9 µg/mL). Besides, the IC50 in data set [1] is above 30 µM.

In data set [4], `CN1CCN(C(=O)c2cnc(Nc3c4c(cc5c3CCC5)CCC4)o2)S1(=O)=O` yielded a solubility of 18.1 µM (≈ 7.28 µg/mL). For the same compound, the logD in data set [7] amounted to 3.8. For the same compound, the Papp at 2 h, 25 µM in [20] was 15.5 ×10⁻⁶ cm/s.

For `CC(=O)N1CCCN(S(=O)(=O)NC(=O)c2coc(Nc3cc(C(F)(F)F)ccc3C)n2)CC1`, the logD in data set [7] was 2.2. Also, the fraction unbound in data set [12] is 0.018.

`Cc1ccc(C(C)C)cc1Nc1nc(C(=O)NS(=O)(=O)N(C)C)co1`: the IC50 in data set [1] worked out at 0.14 µM; in [21], 6.8 µM. In data set [7], this compound came in with a logD of 2.7.

`Cc1ccc(C(F)(F)F)cc1Nc1nc(C(=O)NS(=O)(=O)N(C)C)co1` had a logD in [7] of 2.4. For the same compound, the fraction unbound in data set [12] was 0.004.

In the case of `Cc1ccc(C(F)(F)F)cc1Nc1nc(C(=O)NS(=O)(=O)N2CCOCC2)co1`, the IC50 in data set [1] is 0.038 µM; in data set [21], 8 µM. In data set [7], this compound had a pH-dependent lipophilicity (logD) of 2.2. The fraction unbound in data set [12] is below 0.001.

`CC(C)c1ccc2c(c1Nc1nc(C(=O)NS(=O)(=O)N(C)C)co1)CCC2` came in with a logD in data set [7] of 2.9. For the same compound, the IC50 in data set [21] came out at 5.8 µM.

With `Cc1ccc(C(F)(F)F)nc1Nc1nc(C(=O)NS(=O)(=O)N(C)C)co1`, the logD in data set [7] was found to be 2.1. In addition, in data set [21], the IC50 is 4.7 µM.

With `COC(=O)c1ccnc(Nc2c3c(cc4c2CCC4)CCC3)n1`, the half-maximal inhibitory concentration (IC50) in data set [1] is above 30 µM.

Regarding `CS(=O)(=O)NC(=O)c1cnc(Nc2c3c(cc4c2CCC4)CCC3)o1`, the concentration in solution in data set [4] (solubility) was 475 µM (≈ 172 µg/mL). Moreover, the IC50 in [1] came to 6.8 µM. In addition, in data set [7], the logD came to 2.1. Moreover, in data set [20], the Papp at 2 h, 25 µM was found to be 0.13 ×10⁻⁶ cm/s.

For the compound `Cc1ccc(C(F)(F)F)cc1Nc1nc(C(=O)NS(=O)(=O)N2CCCN(S(C)(=O)=O)CC2)co1`, in [7], the logD stood at 2.4. In addition, the fraction unbound in [12] was 0.011.

As for `CCOC(=O)c1cnc(Nc2c3c(cc4c2CCC4)CCC3)s1`, in data set [1], the IC50 is above 30 µM.

As for `COC(=O)[C@@H]1CCCN1C(=O)Nc1c2c(cc3c1CCC3)CCC2`, the IC50 in [1] is above 10 µM.

In the case of `CCOC(=O)c1nnc(Nc2c3c(cc4c2CCC4)CCC3)o1`, the IC50 in data set [1] worked out at 8.9 µM.

With `Cc1ccc(C)c(Nc2nc(C(=O)NS(=O)(=O)N(C)C)co2)c1`, the 50% inhibitory concentration (IC50) in data set [1] was found to be 0.51 µM; in data set [21], 11 µM. This compound also showed a pH-dependent lipophilicity (logD) in data set [7] of 2.

In data set [4], `O=C(O)c1cnc(Nc2c3c(cc4c2CCC4)CCC3)o1` displayed a solubility of 442 µM (≈ 126 µg/mL). Further, in [1], the half-maximal inhibitory concentration (IC50) amounted to 2.4 µM. For the same compound, the logD in [7] turned out to be 1.8. In addition, the Papp at 2 h, 25 µM in [20] came out at 4 ×10⁻⁶ cm/s.

Turning to `Cc1ccc(C2CCC2)cc1Nc1nc(C(=O)NS(=O)(=O)N(C)C)co1`, in [7], the logD worked out at 2.9.

In data set [7], `Cc1ccc(C(F)(F)F)cc1Nc1nc(C(=O)NS(=O)(=O)N(C)C(C)C)co1` gave a logD of 3.3. The fraction unbound in data set [12] was below 0.001.

Turning to `COC(=O)CN1CC(=O)N(c2c3c(cc4c2CCC4)CCC3)C1=O`, in data set [1], the half-maximal inhibitory concentration (IC50) is above 30 µM.

Consider `COC(=O)[C@H]1CCCN1C(=O)Nc1c2c(cc3c1CCC3)CCC2`, for which, in data set [1], the IC50 is above 10 µM.

In data set [7], `Cc1ccc2c(c1Nc1nc(C(=O)NS(=O)(=O)N(C)C)co1)CCC2` returned a pH-dependent lipophilicity (logD) of 2.3. In addition, the IC50 in data set [21] amounted to 18 µM.

`CN(C)S(=O)(=O)NC(=O)c1cnc(Nc2c3c(cc4c2CCC4)CCC3)o1` showed a solubility in data set [4] above 475 µM. Moreover, in [7], the logD came out at 2.3. The Papp at 2 h, 25 µM in data set [20] came out at 1.2 ×10⁻⁶ cm/s.

For `Cc1ccc(C(C)(C)C)cc1Nc1nc(C(=O)NS(=O)(=O)N(C)C)co1`, the logD in data set [7] was 3. Besides, the concentration for half-maximal inhibition (IC50) in data set [21] was 7.7 µM.

Values taken from ChEMBL document CHEMBL5356996, “Discovery of Novel NLRP3 Inflammasome Inhibitors Composed of an Oxazole Scaffold Bearing an Acylsulfamide” (ACS Med Chem Lett, 2023).
